Laboratory results taken from patent publication US7605227B2, “Melanoma antigen peptide analogues” (MannKind Corporation, priority 2005, dated 2009).
Entries after “also recorded” stand apart in the source; their conditions may differ.

Experiments:
[1] = tested on: T cells that recognized native PSMA288-297 peptide; assay: Peptide immunization with PSMA analogs, IFN-gamma ELISPOT against native peptide; type: in vivo, HHD transgenic mice; settings: peptide + pI:C intranodal immunization
Experimental: Groups of HHD transgenic mice (n=8) were immunized with peptide (natural epitope PSMA288-297, or analogs bearing substitutions at primary or secondary anchor residues) by direct inoculation into the inguinal lymph nodes, with 25 μg in 25 μl of PBS+12.5 μg of pI:C to each lymph node at day 0, 3, 14 and 17.
Mice were sacrificed at 10 days after the last boost, and splenocytes prepared and assessed for IFN-γ production by ELISPOT analysis. […] At 48 hours after incubation, the assay was developed and the frequency of cytokine-producing T cells that recognized native PSMA288-297 peptide was automatically counted. The data is represented in FIG. 22 as the number of spot forming colonies/well (mean of triplicates±SD). […] To the extent that the poor immunogenicity of the native epitope reflects tolerance, the improved activity of these analogs represents tolerance breaking.

[2] = tested on: T cells that recognized the PSMA288-297 peptide; assay: Plasmid prime, PSMA peptide boost, IFN-gamma ELISPOT; type: in vivo, HHD transgenic mice; settings: versus natural peptide boost
Experimental: Two groups of HHD transgenic mice (n=8) were immunized with plasmid expressing PSMA288-297 by direct inoculation into the inguinal lymph nodes with 25 μg in 25 μl of PBS to each lymph node at day 0, 3, 14 and 17. This was followed by two peptide boosts (25 μg) at day 28 and 31 with either the natural peptide or the I297V analog.
Mice were sacrificed at 10 days after the last boost, and splenocytes prepared and assessed for IFN-γ production by ELISPOT analysis. […] At 48 hours after incubation, the assay was developed and the frequency of cytokine-producing T cells that recognized the PSMA288-297 peptide was automatically counted. The data is represented in FIG. 23 as frequency of specific T cells normalized to 0.5 million responder cells (mean of triplicates+SD).

PSMA+ A2+ LnCap cells = assay: PSMA immunization, ex vivo cytotoxicity against human tumor cells; type: in vivo, HHD transgenic mice
Experimental: HHD transgenic mice (n=4) were immunized with PSMA288-297 peptide (25 μg in 25 μl of PBS, plus 12.5 μg of pI:C to each lymph node) at day 0, 3, 14 and 17. One week after the boost, splenocytes were stimulated ex vivo with the native PSMA288-297 peptide and tested against ^51Cr-labeled human tumor cells (PSMA^+ A2^+ LnCap cells, or as negative control, LnCap cells coated with MHC class I-blocking antibody) at various E:T ratios.
HHD transgenic mice (n=4) were immunized with plasmid expressing the PSMA288-297 epitope by direct inoculation into the inguinal lymph nodes with 25 μg in 25 μl of PBS to each lymph node at day 0, 3, 14 and 17. This was followed by two peptide boosts (same amount) at day 28 and 31, with the analog I297V. One week after the boost, splenocytes were stimulated ex vivo with the native PSMA288-297 peptide and tested overnight against ^51Cr-labeled human tumor cells (Lncap, A2^+ PSMA^+; or 624.38 A2^+ PSMA^− or control 624.28 cells A2^− PSMA^−) at various E:T ratios.

[3] = tested on: T cells specific for the wild-type NY-ESO-1157-165 epitope; assay: Cross-reactivity and functional avidity of NY-ESO-1 157-165 analogs (IFN-gamma); type: cell-based, HHD transgenic mice
Description: A methodology was devised to allow rapid and rational screening of peptide analogs in a fashion coherent with proposed methods of use and modeling the overall immunologic properties (Kon and Koff relative to MHC interaction and TCR binding properties in an integrated fashion). In some instances, the method included generating T cell lines against a natural (non-mutated) epitope (SSX-241-49), and using an immunization strategy potent enough to generate a useful response in transgenic mice carrying human MHC (such as the A2 allele). Peptide analogs were interrogated ex vivo in the presence of competent APCs and the functional impact of T cells specific for natural (non-mutated) epitopes measured. The evaluation was done at various concentrations of analog, because the expected effect was biphasic in the case of cross reactive peptides (activating at limited concentrations and inhibiting at higher concentrations, due to antigen-induced cell death, AICD). Measurement of the following three parameters were used to define basic and useful characteristics of peptide analogs: • 1. […]
At 7 days after the last boost, the mice were sacrificed and a suspension of splenocytes prepared at 5×10^6 […] cells/ml in complete HL-1 medium. […] The supernatant was harvested and the concentration of IFN-gamma assessed by standard methods such as ELISA. […]

HLA-A*0201 = HLA-A*0201 (Homo sapiens, UniProt P04439, D140Y/D185E/D98H/E176V/E277Q/G131W/G231S/I119V/I121R/I166T/I218V/L300P/L318F/N151K/N90K/P208A/P217A/Q86G/Q94H/R138H/R169H/T345S); assay: iTopia off-rate assay (T1/2); type: binding; settings: PRAME425-433 and analogs
Experimental: Avidin-coated microtiter plates containing class I monomer loaded with a so-called placeholder peptide were used to evaluate peptide binding, affinity and off-rate. […] Assay buffers, anti-MHC-FITC mAb and beta2-microglobulin and control peptides were also supplied with the kits.
The plates were then incubated on the allele-specific monomer plates at 37° C. The plates were measured at multiple time points (0, 0.5, 1, 1.5, 2, 4, 6 and 8 hrs) for relative fluorescence intensity. The time required for 50% of the peptide to dissociate from the MHC monomer is defined as the T1/2 value (hrs).
The binding and offrate (T1/2) was determined for six native epitopes and their analogs which were designed to enhance the immune response.

[4] = tested on: native epitope coated cells; assay: pCTLR2 prime, PRAME peptide boost, in vivo cytotoxicity (CFSE); set-up: species or system HHD transgenic mice

GLPSIPVHPV [PSMA 288-297(I297V)] was tested, and the “IFN-γ ELISPOT response against native epitope, in words” value [1] was “increased priming of immune responses against the native epitope”, the “frequency of native epitope-specific T cells (ELISPOT), in words” value [2] was “considerably higher” and the “ex vivo cytotoxicity against PSMA+ human tumor cells, in words” value (PSMA+ A2+ LnCap cells) was “cytotoxic immunity against a PSMA^+ human tumor line; also recorded: effective in mediating cytotoxicity against LNCAP”.
For “L158V: NY-ESO-1 157-165 analog with V for L at position 158 (SVLMWITQC; UniProt P78358 157-165, looked up, variant L158V) [Peptide L158V]”, the “cross-reactivity / activity relative to wild-type, in words” value [3] was “partial retention of activity”.
In the case of “S425F: PRAME425-433 analog with Phe for Ser at P1 (FLLQHLIGL) [Peptide S425F]”, the “half time of dissociation” value (HLA-A*0201) is reported as 17.7 h and the “in vivo cytotoxicity against native epitope, in words” value [4] is reported as “capable of expanding the immunity against the native epitope”.
